Reference: US20200077655A1, “Use of an Acyclic Picolinamide Compound as a Fungicide for Control of Phytopathogenic Fungi in Orchard, Vineyard and Plantation Crops” (Dow AgroSciences LLC, priority 2017, published 2020)

Columns and labels:
Type in all cases: in vivo
Alternaria mali (ALTEMA) = experiment: Field assessment of leaf spot of apple, protectant and curative trials
Description: Assessment of compound I on leaf spot of apple (ALTEMA), in both protectant and curative fashion, was performed in two separate field trials. For the protectant trial, a fungicidal treatment containing a 10% SC formulation of Compound I, either alone or with an adjuvant (Agnique BP420, 50% w/w at 0.3% v/v; or ETHOMEEN T18H, 50% w/w at 0.2% v/v), was sprayed on the plant canopy of apple trees (Hongxing variety) six times during the growing season of apples with each application coming at 15 day intervals. Formulations of Compound I, with or without adjuvants, were applied at rates of 100, 125 and 150 grams of active ingredient per hectare (g ai/ha) and were applied at water volume of 4500 L/ha. The experimental plots were inoculated three times with the leaf spot pathogen, the first inoculation performed at 2 days after the first application (Application A, 2DAAA), with the following applications at 2DAAC and 2DAAD. The treatment was part of an experimental trial designed as a randomized complete block with three replications and a plot size of 3 trees.
For the curative trial, a fungicidal treatment containing a 10% SC formulation of Compound I, either alone or with an adjuvant (Agnique BP420, 50% w/w at 0.3% v/v; or ETHOMEEN T18H, 50% w/w at 0.2% v/v), was sprayed on the plant canopy of apple trees (Hongxing variety) six times during the growing season of apples with each application coming at 15 day intervals. Formulations of Compound I, with or without adjuvants, were applied at rates of 100, 125 and 150 grams of active ingredient per hectare (g ai/ha) and were applied at water volume of 4500 L/ha. The experimental plots were inoculated three times with the leaf spot pathogen, the first inoculation performed at 5 days before the first application. The second inoculation was at 5 days before the third application and the third inoculation coming at 5 days before the fourth application. The treatment was part of an experimental trial designed as a randomized complete block with three replications and a plot size of 3 trees.
Disease incidence was assessed as percentage of diseased foliage per plant. Apple leaf spot infection was assessed six times, with the last assessment coming at 90 days after the first application. Area under the disease progress curve (AUDPC) was calculated for each plot using the sets of recorded visual infection data. Relative AUDPC (% control based on AUDPC) was calculated as percent of the nontreated control.

Venturia pyrina (VENTPI) = experiment: Field assessment of pear scab; conditions: pears, 15 days after final application
Source text: A 10% SC formulation of Compound I was tank mixed with three different adjuvants: Agnique BP420 (50% w/w at 0.3% v/v), Ethomeen T18H (50% w/w at 0.15% v/v) and Trycol (50% w/w at 0.3% v/v). Formulations of compound I were sprayed on the plant canopy of pear trees (Highland variety) of approximately 2.5 m in height at rates of 100, 150 and 200 grams of active ingredient per hectare (g ai/ha). The trial was based on six foliar applications during the growing season at approximately 12 day intervals with natural pear scab and sooty mold infections in open field conditions. The treatment was part of an experimental trial designed as a randomized complete block with four replications and a plot of approximately 3×5 m. Formulations of compound I were applied with a SOLO mistblower sprayer at a water volume of 1500 L/ha.
For VENTPI evaluation, percent control was calculated based on incidence and severity in fruit assessment vs the nontreated control on a random selection of 50 fruits per plot. For CAPDSP assessment, percent control was calculated from percent leaf severity using Abbotts and the nontreated control. Percent control for both diseases was calculated at 11DAAE, 7DAAF and 15DAAF.

[1] = test system: Cladosporium carpopilum (CLADSP); experiment: Field assessment of almond scab; conditions: almond nut incidence, 121 DAAA
Source text: A fungicidal treatment containing Compound I, applied in an SC formulation (MSO built-in) and tank mixed with an adjuvant (Agnique BP-420, 50% w/w at 0.2% v/v or Adsee C80W 80%), was sprayed as a single application on almond trees (PRNDU, Winter variety) at rates of 60, 120, 150, and 180 g ai/ha. The experimental plots were run with natural infestation. The treatment was part of an experimental trial designed as a randomized complete block (RCB) with three replications and a plot of approximately 16×22 ft. Compound I was applied at water volume of 100 gal/acre, using a Mistblower sprayer (Orifice nozzle 2.3 setting).
Nut incidence (number of visual diseased nuts per 10 nuts per tree on whole plot) was assessed 121 days after application A (121 DAAA). Using Abbotts, % nut incidence of the treatments was used vs the nontreated to calculate % control.

[2] = 100 g ai/ha, adjuvant ETHOMEEN, 10% SC
[3] = 100 g ai/ha, adjuvant None, 10% SC
[4] = 125 g ai/ha, adjuvant Agnique BP420, 10% SC
[5] = 125 g ai/ha, adjuvant ETHOMEEN, 10% SC
[6] = 150 g ai/ha, adjuvant ETHOMEEN, 10% SC
[7] = 100 g ai/ha, adjuvant Agnique BP420 (first such line, r11)
[8] = 100 g ai/ha, adjuvant Agnique BP420 (second such line, r13)
[9] = 200 g ai/ha, adjuvant Agnique BP420

COc1ccnc(C(=O)N[C@@H](C)C(=O)O[C@@H](C)C(c2ccc(F)cc2)c2ccc(F)cc2)c1OC(C)=O [Compound I, (S)-1,1-bis(4-fluorophenyl)propan-2-yl (3-acetoxy-4-methoxypicolinoyl)-L-alaninate]
% Control Curative (AUDPC, leaf infection) (Alternaria mali (ALTEMA); [2]): A (76-100)
% Control Protectant (AUDPC, leaf infection) (Alternaria mali (ALTEMA); [2]): A (76-100)
% Control Curative (AUDPC, leaf infection) (Alternaria mali (ALTEMA); [3]): B (51-75)
% Control Protectant (AUDPC, leaf infection) (Alternaria mali (ALTEMA); [3]): B (51-75)
% Control Curative (AUDPC, leaf infection) (Alternaria mali (ALTEMA); [4]): A (76-100)
% Control Protectant (AUDPC, leaf infection) (Alternaria mali (ALTEMA); [4]): A (76-100)
% Control Curative (AUDPC, leaf infection) (Alternaria mali (ALTEMA); [5]): A (76-100)
% Control Protectant (AUDPC, leaf infection) (Alternaria mali (ALTEMA); [5]): A (76-100)
% Control Curative (AUDPC, leaf infection) (Alternaria mali (ALTEMA); [6]): A (76-100)
% Control Protectant (AUDPC, leaf infection) (Alternaria mali (ALTEMA); [6]): A (76-100)
Percent control VENTPI, incidence in fruit assessment (Venturia pyrina (VENTPI); [7]): B (51-75)
Percent control VENTPI, severity in fruit assessment (Venturia pyrina (VENTPI); [7]): B (51-75)
Percent control VENTPI, incidence in fruit assessment (Venturia pyrina (VENTPI); [8]): B (51-75)
Percent control VENTPI, severity in fruit assessment (Venturia pyrina (VENTPI); [8]): A (76-100)
Percent control VENTPI, incidence in fruit assessment (Venturia pyrina (VENTPI); 100 g ai/ha, adjuvant ETHOMEEN): C (26-50)
Percent control VENTPI, severity in fruit assessment (Venturia pyrina (VENTPI); 100 g ai/ha, adjuvant ETHOMEEN): B (51-75)
Percent control VENTPI, incidence in fruit assessment (Venturia pyrina (VENTPI); 100 g ai/ha, adjuvant None): C (26-50)
Percent control VENTPI, severity in fruit assessment (Venturia pyrina (VENTPI); 100 g ai/ha, adjuvant None): B (51-75)
Percent control VENTPI, incidence in fruit assessment (Venturia pyrina (VENTPI); 100 g ai/ha, adjuvant Trycol): B (51-75)
Percent control VENTPI, severity in fruit assessment (Venturia pyrina (VENTPI); 100 g ai/ha, adjuvant Trycol): B (51-75)
Percent control VENTPI, incidence in fruit assessment (Venturia pyrina (VENTPI); [9]): B (51-75)
Percent control VENTPI, severity in fruit assessment (Venturia pyrina (VENTPI); [9]): B (51-75)
Calc Percent Control of CLADSP ([1]; 60 g ai/ha, Agnique BP420, 240 mL/ha): 47.3%
Calc Percent Control of CLADSP ([1]; 60 g ai/ha, MSO, 120 g ai/ha): 61.8%
Calc Percent Control of CLADSP ([1]; 120 g ai/ha, Agnique BP420, 480 mL/ha): 68.2%
Calc Percent Control of CLADSP ([1]; 120 g ai/ha, MSO, 240 g ai/ha): 97.0%
Calc Percent Control of CLADSP ([1]; 150 g ai/ha, Agnique BP420, 600 mL/ha): 69.7%
Calc Percent Control of CLADSP ([1]; 150 g ai/ha, MSO, 300 g ai/ha): 55.1%
Calc Percent Control of CLADSP ([1]; 180 g ai/ha, Agnique BP420, 720 mL/ha): 90.9%
Calc Percent Control of CLADSP ([1]; 180 g ai/ha, MSO, 360 g ai/ha): 39.5%
